In this experiment the target is T1, ERAAP (ER aminopeptidase associated with antigen processing) (Mus musculus, UniProt Q9EQH2).
T1 sequence (Q9EQH2 1-930): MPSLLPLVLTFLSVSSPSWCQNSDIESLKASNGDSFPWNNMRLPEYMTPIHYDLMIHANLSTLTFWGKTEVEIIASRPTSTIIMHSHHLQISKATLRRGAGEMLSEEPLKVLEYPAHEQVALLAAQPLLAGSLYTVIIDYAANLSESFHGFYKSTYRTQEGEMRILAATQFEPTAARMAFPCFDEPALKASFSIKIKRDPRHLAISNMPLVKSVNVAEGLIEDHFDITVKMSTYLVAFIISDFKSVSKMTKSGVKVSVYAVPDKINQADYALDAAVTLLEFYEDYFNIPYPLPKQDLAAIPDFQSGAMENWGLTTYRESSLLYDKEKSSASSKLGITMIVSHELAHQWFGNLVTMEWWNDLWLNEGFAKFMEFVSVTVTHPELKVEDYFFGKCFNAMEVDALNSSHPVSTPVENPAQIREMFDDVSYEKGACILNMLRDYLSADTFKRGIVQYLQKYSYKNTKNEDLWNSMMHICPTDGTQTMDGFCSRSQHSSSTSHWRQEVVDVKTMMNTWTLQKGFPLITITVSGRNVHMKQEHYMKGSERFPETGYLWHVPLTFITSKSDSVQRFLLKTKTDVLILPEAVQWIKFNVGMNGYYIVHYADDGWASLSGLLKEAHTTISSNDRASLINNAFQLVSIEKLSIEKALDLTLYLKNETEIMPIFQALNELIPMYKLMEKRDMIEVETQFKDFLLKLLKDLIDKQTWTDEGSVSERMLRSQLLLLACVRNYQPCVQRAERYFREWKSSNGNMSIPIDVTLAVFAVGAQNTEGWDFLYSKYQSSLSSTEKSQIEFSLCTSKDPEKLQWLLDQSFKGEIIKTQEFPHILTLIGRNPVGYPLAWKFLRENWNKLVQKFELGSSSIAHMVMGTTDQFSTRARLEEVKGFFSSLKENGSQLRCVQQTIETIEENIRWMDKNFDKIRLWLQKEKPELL
Put plainly: fluorogenic Ep peptide cleavage assay, dose-response. It counts as biochemical.

For 1 compound, IC50 results are on record in article PMC6092045 (Chemical communications (Cambridge, England), 2018).

The term IC50 denotes the concentration needed to halve the response being measured.

The compound `C#CC(=O)c1ccc(Br)cc1F` [A, 1-(4-bromo-2-fluorophenyl)prop-2-yn-1-one] yielded a concentration for half-maximal inhibition (IC50) of 23 µM.
